Assay [1] concerns Staphylococcus aureus 209P. The assay is described as follows: Anti-bacterial test, Chequer board method. The format is cell-based. The protocol: Tests for anti-bacterial properties were conducted on compositions of the sample of chitosan and SMX, mixed according to the mixing ratios shown in Tables 1 through 3, respectively.
As strains to be tested, there are used Staphylococcus aureus 209P (a typical example of Gram positive bacteria), Escherichia coli NIHJ (a typical example of Gram negative bacteria) and Pseudomonas aeruginosa 3456.
The combined effects obtained by the present tests were determined in accordance with the Chequer board method with reference to the knowledges of Bushby et al (Bushby, S.R.M. & G.H. Hitchings: Trimethoprim. a sulfonamide potentiator. Brit. J. pharm. Chemother 33: 72 ~ 90, 1968) and Bohni et al (Bohni. E: Vergleichende bakteriologishe Untersuchungen mit der Kombination Trimethoprim/Sulfamethoxazol in vitro und in vivo. Chemotherapy. Suppl ad. 14: 1 21, 1969), both of whom reporting the combined effect between sulfamethoxazole (SMX) and trimethoprim (TMP), both of which are noted on the market at present. The results of the tests are shown in Table 1 through 3, respectively.

Assay [2] relates to Escherichia coli NIHJ. The assay is described as follows: Survival of mice infected with Escherichia coli. The format is in vivo, ICR mice (male). The following applies: in 28 hours; dosage of SMX of 5 or 10 mg in two hours after the infection. An excerpt:
A strain of Escherichia coli NIHJ is floated in physiologic saline, and a mixture solution containing the strain of Escherichia coli NINJ and 4% mucin, being equal in absorbance to each other is produced. ICR mice (male) were fed with […] this mixture solution containing the bacteria. As the result, all examples of the mice infected with the strain of Escherichia coli (intra Peritoneal administration of 5 ~ 10 times LDso in mice) died in twelve hours (The first contrast group). Subsequently, 80 m 90% of the group of mice on the dosage of SMX of 5 or 10 mg in two hours after the infection were still alive in 24 hours. The rate of survival of the group of mice decreased to 10 ~ 20% in 28 hours.

On to `Cc1cc(NS(=O)(=O)c2ccc(N)cc2)no1` [SMX, sulfamethoxazol], for which the MIC in assay [1] (Staphylococcus aureus, 209P, SMX solely used, in a test tube, read-out: minimum inhibition concentration (MIC) of SMX) is 50 µg/mL. Also, the “MIC of SMX” value in assay [1] (chitosan added at a rate of 2.5 µg/mℓ) turned out to be 3.1 µg/mL. In addition, in assay [1] (chitosan added at a rate of 2.5 µg/mℓ, versus SMX solely used), the “anti-bacterial action is increased” value is listed as “about 16 times SMX”. The rate of survival in assay [2] was 10 ~ 20%.

Source of the values: EP0105106A2, “Anti-bacterial composition” (DAITO KOEKI KABUSHIKI KAISHA, priority 1982, dated 1984).
